Test results: PMC4145847 (ChemMedChem, 2014)
Read-outs that look alike come from different tables or passages of the source. Each block holds one compound with its values, some of them ahead of it.

Assays:
[1] = test system: MDA MB-231 human breast cancer cells; experiment: Antiproliferative assay; type: cell-based; conditions: for GI50: read-out: GI50 MDA MB-231
[2] = test system: DU-145 human prostate cancer cells; experiment: Antiproliferative assay; type: cell-based; conditions: for GI50: read-out: GI50 DU-145; for Fold less active than 20b: DU-145 and MDA MB-231
Renal SN12-C [3] = experiment: NCI-60 cell line assay, Renal SN12-C; type: cell-based; conditions: Homo sapiens, SN12C, read-out: GI50 Renal SN12-C
Lung HOP-62 [4] = experiment: NCI-60 cell line assay, Lung HOP-62; type: cell-based; conditions: Homo sapiens, HOP-62, read-out: GI50 Lung HOP-62
NCI 60-cell line panel [5] = experiment: NCI-60 cell line assay, mean over all 60 cell lines; type: cell-based; conditions: for MGM: mean concentration that caused 50% growth inhibition in all 60 cell lines
Ovarian OVCAR-3 [6] = experiment: NCI-60 cell line assay, Ovarian OVCAR-3; type: cell-based; conditions: Homo sapiens, OVCAR-3, read-out: GI50 Ovarian OVCAR-3
Melanoma UACC-62 [7] = experiment: NCI-60 cell line assay, Melanoma UACC-62; type: cell-based; conditions: Homo sapiens, UACC-62, read-out: GI50 Melanoma UACC-62
Colon HCT-116 [8] = experiment: NCI-60 cell line assay, Colon HCT-116; type: cell-based; conditions: Homo sapiens, HCT-116, read-out: GI50 Colon HCT-116
[9] = test system: various cancer lines in sealed polyvinylidine fluoride fibres implanted i.p. or s.c.; experiment: NCI hollow fibre assay; conditions: mice; for Hollow fibre assay score (maximum 96): total score
Melanoma UACC-62 [10] = conditions: read-out: GI50 Melanoma UACC-62; NCI-60 panel; cited from earlier work
Ovarian OVCAR-3 [11] = conditions: read-out: GI50 Ovarian OVCAR-3; NCI-60 panel; cited from earlier work
NCI 60-cell line panel [12] = conditions: mean concentration that caused 50% growth inhibition in all 60 cell lines; cited from earlier work
Colon HCT-116 [13] = conditions: read-out: GI50 Colon HCT-116; NCI-60 panel; cited from earlier work
Lung HOP-62 [14] = conditions: read-out: GI50 Lung HOP-62; NCI-60 panel; cited from earlier work
Renal SN12-C [15] = conditions: read-out: GI50 Renal SN12-C; NCI-60 panel; cited from earlier work
CNS SF-539 = conditions: read-out: GI50 CNS SF-539; NCI-60 panel; cited from earlier work
Bovine brain tubulin [16] = experiment: Inhibition of [3H]colchicine binding to tubulin; conditions: 1.0 μM tubulin, 5.0 μM [3H]colchicine, mean ±SD
Bovine brain tubulin [17] = experiment: Inhibition of tubulin assembly; type: biochemical; conditions: read-out: Tubulin assembly IC50; 10 μM tubulin; mean ±SD of at least two determinations
Bovine brain tubulin [18] = conditions: 1.0 μM tubulin, 5.0 μM [3H]colchicine, mean ±SD; cited from earlier work
[19] = mean of three determinations, 96 h

Compound: COc1cc2c(cc1O)CCN(Cc1cc(Br)c(OC)c(OC)c1)C2 [Compound 11f, 2-(3-Bromo-4,5-dimethoxybenzyl)-6-hydroxy-7-methoxy-1,2,3,4-tetrahydroisoquinoline]
- GI50 (Renal SN12-C [3]): 768 nM
- GI50 (Lung HOP-62 [4]): 353 nM
- MGM (NCI 60-cell line panel [5]): 0.38 µM
- GI50 (Ovarian OVCAR-3 [6]): 74 nM
- GI50 (Melanoma UACC-62 [7]): 305 nM
- GI50 (Colon HCT-116 [8]): 143 nM
- Hollow fibre assay score (maximum 96) ([9]; dosed i.p. at 150 mg/kg): 2

Compound: COc1cc2c(cc1O)CCN(Cc1cc(Cl)c(OC)c(OC)c1)C2 [Compound 11e, 2-(3-Chloro-4,5-dimethoxybenzyl)-6-hydroxy-7-methoxy-1,2,3,4-tetrahydroisoquinoline]
- GI50 (Renal SN12-C [3]): 910 nM
- GI50 (Lung HOP-62 [4]): 869 nM
- MGM (NCI 60-cell line panel [5]): 0.501 µM
- GI50 (Ovarian OVCAR-3 [6]): 187 nM
- GI50 (Melanoma UACC-62 [7]): 350 nM
- GI50 (Colon HCT-116 [8]): 474 nM

Compound: COc1cc2c(cc1OS(N)(=O)=O)CC[C@@H]1[C@@H]2CC[C@]2(C)[C@@H](OS(N)(=O)=O)CC[C@@H]12 [Compound 1a, 2-methoxyestradiol-3,17-O,O-bis-sulfamate]
- GI50 (Melanoma UACC-62 [10]): < 10 nM
- GI50 (Ovarian OVCAR-3 [11]): < 10 nM
- MGM (NCI 60-cell line panel [12]): 0.087 µM
- GI50 (Colon HCT-116 [13]): 45 nM
- GI50 (Lung HOP-62 [14]): 51 nM
- GI50 (Renal SN12-C [15]): 126 nM
- GI50 (CNS SF-539): 36 nM

Compound: COc1cc2c(cc1OC(C)=O)CCN(Cc1cc(OC)c(OC)c(OC)c1)C2 [Compound 17b, 6-Acetoxy-7-methoxy-2-(3,4,5-trimethoxybenzyl)-1,2,3,4-tetrahydroisoquinoline]
- GI50 ([1]; Homo sapiens, MDA-MB-231, 96 h): 340 nM
- GI50 ([2]; Homo sapiens, DU-145, 96 h): 407 nM

Compound: CCc1cc2c(cc1OS(N)(=O)=O)CCN(Cc1cc(Br)c(OC)c(OC)c1)C2 [Compound 15, 2-(3-Bromo-4,5-dimethoxybenzyl)-7-ethyl-6-sulfamoyloxy-1,2,3,4-tetrahydroisoquinoline]
- GI50 ([1]; Homo sapiens, MDA-MB-231, 96 h): 30 nM
- Colchicine binding Inhibition at 5 μM inhibitor (Bovine brain tubulin [16]): 78±2%
- IC50 (Bovine brain tubulin [17]): 1800 ± 40 nM
- GI50 ([2]; Homo sapiens, DU-145, 96 h): 20 nM

Compound: COc1cc2c(cc1OS(N)(=O)=O)CCN(Cc1cc(Cl)c(OC)c(OC)c1)C2 [Compound 12e, 2-(3-Chloro-4,5-dimethoxybenzyl)-7-methoxy-6-sulfamoyloxy-1,2,3,4-tetrahydroisoquinoline]
- GI50 (Renal SN12-C [3]): 66 nM
- GI50 (Lung HOP-62 [4]): 56 nM
- MGM values (NCI 60-cell line panel [5]; NCI 60-cell line assay, stated in abstract): ~40 nM
- MGM (NCI 60-cell line panel [5]): 0.039 µM
- GI50 (Ovarian OVCAR-3 [6]): 20 nM
- Colchicine binding Inhibition at 5 μM inhibitor (Bovine brain tubulin [16]): 32 ±3%
- IC50 (Bovine brain tubulin [17]): 5600 ± 700 nM
- GI50 (Melanoma UACC-62 [7]): 25 nM
- Increase in antiproliferative activity relative to 4a ([2]; DU-145): 8- to 10 fold
- GI50 (Colon HCT-116 [8]): 39 nM

Compound: COc1cc2c(cc1OS(N)(=O)=O)CCN(Cc1cc(Br)c(OC)c(OC)c1)C2 [Compound 12f, 2-(3-Bromo-4,5-dimethoxybenzyl)-7-methoxy-6-sulfamoyloxy-1,2,3,4-tetrahydroisoquinoline]
- GI50 (Renal SN12-C [3]): 55 nM
- GI50 (Lung HOP-62 [4]): 80 nM
- MGM (NCI 60-cell line panel [5]): 0.044 µM
- GI50 (Ovarian OVCAR-3 [6]): 18 nM
- Colchicine binding Inhibition at 5 μM inhibitor (Bovine brain tubulin [16]): 45 ±0.6%
- IC50 (Bovine brain tubulin [17]): 2400 ± 400 nM
- GI50 (Melanoma UACC-62 [7]): 28 nM
- GI50 (Colon HCT-116 [8]): 38 nM
- Hollow fibre assay score for i.p. fibres ([9]; dosed i.p. at 75 mg/kg): 16
- Hollow fibre assay score for s.c. fibres ([9]; dosed i.p. at 75 mg/kg): 18
- Hollow fibre assay score (maximum 96) ([9]; dosed i.p. at 75 mg/kg): 34

Compound: CCc1cc(CN2CCc3cc(OS(N)(=O)=O)c(OC)cc3C2)cc(CC)c1CC [Compound 12i, 7-Methoxy-6-sulfamoyloxy-2-(3,4,5-triethylbenzyl)-1,2,3,4-tetra-hydroisoquinoline]
- GI50 (Renal SN12-C [3]): 5290 nM
- GI50 (Lung HOP-62 [4]): 2450 nM
- MGM (NCI 60-cell line panel [5]): 1.17 µM
- GI50 (Ovarian OVCAR-3 [6]): 209 nM
- GI50 (Melanoma UACC-62 [7]): 592 nM
- GI50 (Colon HCT-116 [8]): 1050 nM

Compound: COc1ccc(/C=C\c2cc(OC)c(OC)c(OC)c2)cc1O [CA-4, combretastatin A-4]
- Colchicine binding Inhibition at 5 μM inhibitor (Bovine brain tubulin [18]): 98 ±0.7%

Compound: CCc1cc2c(cc1O)CCN(Cc1cc(Br)c(OC)c(OC)c1)C2 [Compound 14, 2-(3-Bromo-4,5-dimethoxybenzyl)-7-ethyl-6-hydroxy-1,2,3,4-tetrahydroisoquinoline]
- GI50 ([1]; Homo sapiens, MDA-MB-231, 96 h): 400 nM
- GI50 ([2]; Homo sapiens, DU-145, 96 h): 1200 nM

Compound: COc1cc2c(cc1OS(N)(=O)=O)CC(C)N(Cc1cc(Br)c(OC)c(OC)c1)C2 (racemic) [Compound 12j, (±)-2-(3-Bromo-4,5-dimethoxybenzyl)-7-methoxy-3-methyl-6-sulfamoyloxy-1,2,3,4-tetrahydroisoquinoline]
- GI50 [1, 19]: 40 nM
- Colchicine binding Inhibition at 5 μM inhibitor (Bovine brain tubulin [16]): 50 ±4%
- IC50 (Bovine brain tubulin [17]): 2400 ± 200 nM
- GI50 [2, 19]: 50 nM

Compound: COc1cc2c(cc1O)CC(C)N(Cc1cc(Br)c(OC)c(OC)c1)C2 (racemic) [Compound 11j, (±)-2-(3-Bromo-4,5-dimethoxybenzyl)-6-hydroxy-7-methoxy-3-methyl-1,2,3,4-tetrahydroisoquinoline]
- GI50 [1, 19]: 300 nM
- GI50 [2, 19]: 400 nM

More lines, main results first:

- GI50 ([1]; Homo sapiens, MDA-MB-231, 96 h): 77600 nM
- GI50 ([2]; Homo sapiens, DU-145, 96 h): > 100000 nM
Compound: COc1cc2c(cc1OC)CN(Cc1cc(OC)c(OC)c(OC)c1)CC2 [Compound 17a, 6,7-Dimethoxy-2-(3,4,5-trimethoxybenzyl)-1,2,3,4-tetrahydroisoquinoline]
- Fold less active than 3a ([1]; MDA MB-231): 120 fold

- GI50 ([1]; Homo sapiens, MDA-MB-231, 96 h): 74000 nM
- GI50 ([2]; Homo sapiens, DU-145, 96 h): 86000 nM
Compound: COc1cc(CN2CCc3cc(O)ccc3C2)cc(Cl)c1OC [Compound 20e, 2-(3-Chloro-4,5-dimethoxybenzyl)-6-hydroxy-1,2,3,4-tetrahydroisoquinoline]
- Fold less active than 20b [2]: 100- to 600 fold

- GI50 ([1]; Homo sapiens, MDA-MB-231, 96 h): > 100000 nM
- GI50 ([2]; Homo sapiens, DU-145, 96 h): > 100000 nM
Compound: COc1cc(CCN2CCc3cc(O)ccc3C2)cc(OC)c1OC [Compound 20j, 6-Hydroxy-2-(3,4,5-trimethoxyphenethyl)-1,2,3,4-tetrahydroisoquinoline]

- GI50 ([1]; Homo sapiens, MDA-MB-231, 96 h): > 100000 nM
- GI50 ([2]; Homo sapiens, DU-145, 96 h): > 100000 nM
Compound: COc1cc(C(=O)N2CCc3cc(O)ccc3C2)cc(OC)c1OC [Compound 20i, 6-Hydroxy-2-(3,4,5-trimethoxybenzoyl)-1,2,3,4-tetrahydroisoquinoline]

- GI50 ([1]; Homo sapiens, MDA-MB-231, 96 h): 227 nM
- Colchicine binding Inhibition at 5 μM inhibitor (Bovine brain tubulin [16]): 73±3%
- IC50 (Bovine brain tubulin [17]): 1600 ± 100 nM
- GI50 ([2]; Homo sapiens, DU-145, 96 h): 151 nM
Compound: COc1cc(CN2CCc3cc(O)ccc3C2)cc(OC)c1OC [Compound 20b, 6-Hydroxy-2-(3,4,5-trimethoxybenzyl)-1,2,3,4-tetrahydroisoquinoline]
- GI50 (Renal SN12-C [3]): 49 nM
- GI50 (Lung HOP-62 [4]): 62 nM
- MGM (NCI 60-cell line panel [5]): 0.045 µM
- GI50 (Ovarian OVCAR-3 [6]): 19 nM
- GI50 (Melanoma UACC-62 [7]): 49 nM
- GI50 (Colon HCT-116 [8]): 35 nM

- GI50 ([1]; Homo sapiens, MDA-MB-231, 96 h): > 100000 nM
- GI50 ([2]; Homo sapiens, DU-145, 96 h): > 100000 nM
Compound: COc1cc(CN2CCc3cc(OCc4ccccc4)ccc3C2)cc(OC)c1OC [Compound 20a, 6-Benzyloxy-2-(3,4,5-trimethoxybenzyl)-1,2,3,4-tetrahydroisoquinoline]

- GI50 ([1]; Homo sapiens, MDA-MB-231, 96 h): 188 nM
- GI50 ([2]; Homo sapiens, DU-145, 96 h): 220 nM
Compound: COc1cc2c(cc1OS(C)(=O)=O)CCN(Cc1cc(OC)c(OC)c(OC)c1)C2 [Compound 17c, 7-Methoxy-6-methanesulfonyloxy-2-(3,4,5-trimethoxybenzyl)-1,2,3,4-tetrahydroisoquinoline]

- GI50 ([1]; Homo sapiens, MDA-MB-231, 96 h): 4890 nM
- GI50 ([2]; Homo sapiens, DU-145, 96 h): 31000 nM
Compound: COc1ccc2c(c1)CCN(Cc1cc(OC)c(OC)c(OC)c1)C2 [Compound 20c, 6-Methoxy-2-(3,4,5-trimethoxybenzyl)-1,2,3,4-tetrahydroisoquinoline]
- Fold less active than 20b [2]: 20- to 200 fold

- GI50 ([1]; Homo sapiens, MDA-MB-231, 96 h): > 100000 nM
- GI50 ([2]; Homo sapiens, DU-145, 96 h): > 100000 nM
Compound: CCOc1cc(CN2CCc3cc(O)ccc3C2)cc(OCC)c1OCC [Compound 20h, 6-Hydroxy-2-(3,4,5-triethoxybenzyl)-1,2,3,4-tetrahydroisoquinoline]

- GI50 ([1]; Homo sapiens, MDA-MB-231, 96 h): > 100000 nM
- GI50 ([2]; Homo sapiens, DU-145, 96 h): > 100000 nM
Compound: CCOc1c(OC)cc(CN2CCc3cc(O)ccc3C2)cc1OC [Compound 20g, 2-(3,5-Dimethoxy-4-ethoxybenzyl)-6-hydroxy-1,2,3,4-tetrahydroisoquinoline]

- GI50 ([1]; Homo sapiens, MDA-MB-231, 96 h): 25000 nM
- GI50 ([2]; Homo sapiens, DU-145, 96 h): 35000 nM
Compound: COc1cc(CN2CCc3cc(O)ccc3C2)cc(Br)c1OC [Compound 20f, 2-(3-Bromo-4,5-dimethoxybenzyl)-6-hydroxy-1,2,3,4-tetrahydroisoquinoline]

- GI50 ([1]; Homo sapiens, MDA-MB-231, 96 h): > 100000 nM
- GI50 ([2]; Homo sapiens, DU-145, 96 h): > 100000 nM
Compound: COc1cc(CN2CCc3cc(OS(N)(=O)=O)ccc3C2)cc(OC)c1OC [Compound 20d, 6-Sulfamoyloxy-2-(3,4,5-trimethoxybenzyl)-1,2,3,4-tetrahydroisoquinoline]
